Measured values: PubChem BioAssay (NCI)
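Assay format: 96-well plates, 48-hour exposure. GI50: concentration for 50% inhibition of growth. At the TGI there is no net growth.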

How the values were obtained:
Experiment in all cases: DTP human tumour cell line panel, 48 h; in the data active = GI50 below about 0.43 µM; inactive = the rest
786-0 renal = system: 786-0 renal
A498 renal = system: A498 renal
A549 NSCLC = system: A549 NSCLC
ACHN renal = system: ACHN renal
BT-549 breast = system: BT-549 breast
CAKI-1 renal = system: CAKI-1 renal
CCRF-CEM leukemia = system: CCRF-CEM leukemia
COLO 205 colon = system: COLO 205 colon
DU-145 prostate = system: DU-145 prostate
EKVX NSCLC = system: EKVX NSCLC
HCC-2998 colon = system: HCC-2998 colon
HCT-116 colon = system: HCT-116 colon
HCT-15 colon = system: HCT-15 colon
HL-60(TB) leukemia = system: HL-60(TB) leukemia
HOP-62 NSCLC = system: HOP-62 NSCLC
HOP-92 NSCLC = system: HOP-92 NSCLC
HS 578T breast = system: HS 578T breast
HT29 colon = system: HT29 colon
IGROV1 ovarian = system: IGROV1 ovarian
K-562 leukemia = system: K-562 leukemia
KM12 colon = system: KM12 colon
LOX IMVI melanoma = system: LOX IMVI melanoma
M14 melanoma = system: M14 melanoma
MALME-3M melanoma = system: MALME-3M melanoma
MCF7 breast = system: MCF7 breast
MDA-MB-231 breast = system: MDA-MB-231 breast
MDA-MB-435 = system: MDA-MB-435
MDA-MB-468 breast = system: MDA-MB-468 breast
MOLT-4 leukemia = system: MOLT-4 leukemia
NCI-H226 lung = system: NCI-H226 lung
NCI-H23 lung = system: NCI-H23 lung
NCI-H460 lung = system: NCI-H460 lung
NCI-H522 lung = system: NCI-H522 lung
NCI/ADR-RES ovarian = system: NCI/ADR-RES ovarian
OVCAR-3 ovarian = system: OVCAR-3 ovarian
OVCAR-4 ovarian = system: OVCAR-4 ovarian
OVCAR-5 ovarian = system: OVCAR-5 ovarian
OVCAR-8 ovarian = system: OVCAR-8 ovarian
PC-3 prostate = system: PC-3 prostate
RPMI-8226 leukemia = system: RPMI-8226 leukemia
RXF 393 renal = system: RXF 393 renal
SF-268 CNS = system: SF-268 CNS
SF-295 CNS = system: SF-295 CNS
SF-539 CNS = system: SF-539 CNS
SK-MEL-2 melanoma = system: SK-MEL-2 melanoma
SK-MEL-28 melanoma = system: SK-MEL-28 melanoma
SK-MEL-5 melanoma = system: SK-MEL-5 melanoma
SK-OV-3 ovarian = system: SK-OV-3 ovarian
SN12C renal = system: SN12C renal
SNB-19 CNS = system: SNB-19 CNS
SR leukemia = system: SR leukemia
SW-620 colon = system: SW-620 colon
T-47D breast = system: T-47D breast
TK-10 renal = system: TK-10 renal
U251 CNS = system: U251 CNS
UACC-257 melanoma = system: UACC-257 melanoma
UACC-62 melanoma = system: UACC-62 melanoma
UO-31 renal = system: UO-31 renal

CC(=O)c1ccc(Nc2nc(SC(C)C)nc(-c3ccccc3)c2C#N)cc1
71.9 µM: TGI (A498 renal)
50.2 µM: TGI (MDA-MB-468 breast)
6.69 µM: TGI (HCT-116 colon)
11.2 µM: TGI (NCI-H23 lung)
23.8 µM: TGI (HS 578T breast)
5.67 µM: TGI (TK-10 renal)
7.69 µM: TGI (SF-539 CNS)
4.26 µM: TGI (U251 CNS)
38.9 µM: TGI (SK-OV-3 ovarian)
4.94 µM: TGI (UO-31 renal)
7.86 µM: TGI (HOP-92 NSCLC)
4.81 µM: TGI (786-0 renal)
3.25 µM: TGI (SF-295 CNS)
> 100 µM: TGI (A549 NSCLC) | TGI (BT-549 breast) | TGI (CCRF-CEM leukemia) | TGI (COLO 205 colon) | TGI (DU-145 prostate) | TGI (EKVX NSCLC) | TGI (HCC-2998 colon) | TGI (HCT-15 colon) | TGI (HL-60(TB) leukemia) | TGI (HT29 colon) | TGI (IGROV1 ovarian) | TGI (K-562 leukemia) | TGI (KM12 colon) | TGI (LOX IMVI melanoma) | TGI (M14 melanoma) | TGI (MALME-3M melanoma) | TGI (MCF7 breast) | TGI (MDA-MB-435) | TGI (MOLT-4 leukemia) | TGI (NCI-H460 lung) | TGI (NCI-H522 lung) | TGI (OVCAR-3 ovarian) | TGI (OVCAR-4 ovarian) | TGI (OVCAR-5 ovarian) | TGI (OVCAR-8 ovarian) | TGI (PC-3 prostate) | TGI (RPMI-8226 leukemia) | TGI (SF-268 CNS) | TGI (SK-MEL-2 melanoma) | TGI (SK-MEL-28 melanoma) | TGI (SN12C renal) | TGI (SR leukemia) | TGI (T-47D breast) | TGI (UACC-257 melanoma) | TGI (UACC-62 melanoma)
64.1 µM: TGI (SW-620 colon)
13.2 µM: TGI (CAKI-1 renal)
20.3 µM: TGI (SK-MEL-5 melanoma)
5.38 µM: TGI (HOP-62 NSCLC)
5.17 µM: TGI (ACHN renal)
7.14 µM: TGI (NCI-H226 lung)
7.48 µM: TGI (RXF 393 renal)
inactive: GI50 (786-0 renal) 2.07 µM | GI50 (A498 renal) 24.2 µM | GI50 (A549 NSCLC) 72.9 µM | GI50 (ACHN renal) 2.15 µM | GI50 (BT-549 breast) 24.8 µM | GI50 (CAKI-1 renal) 2.82 µM | GI50 (CCRF-CEM leukemia) > 100 µM | GI50 (COLO 205 colon) 15.6 µM | GI50 (DU-145 prostate) 17.6 µM | GI50 (EKVX NSCLC) 4.71 µM | GI50 (HCC-2998 colon) 15.8 µM | GI50 (HCT-116 colon) 1.34 µM | GI50 (HCT-15 colon) 7.61 µM | GI50 (HL-60(TB) leukemia) > 100 µM | GI50 (HOP-62 NSCLC) 2.13 µM | GI50 (HOP-92 NSCLC) 1.91 µM | GI50 (HS 578T breast) 3.09 µM | GI50 (HT29 colon) 3.81 µM | GI50 (IGROV1 ovarian) 8.02 µM | GI50 (K-562 leukemia) 9.17 µM | GI50 (KM12 colon) > 100 µM | GI50 (LOX IMVI melanoma) 3.51 µM | GI50 (M14 melanoma) 21.9 µM | GI50 (MALME-3M melanoma) 14.1 µM | GI50 (MCF7 breast) 4.74 µM | GI50 (MDA-MB-231 breast) 2.9 µM | GI50 (MDA-MB-435) 5.06 µM | GI50 (MDA-MB-468 breast) 5.08 µM | GI50 (MOLT-4 leukemia) > 100 µM | GI50 (NCI-H226 lung) 2.54 µM | GI50 (NCI-H23 lung) 2.46 µM | GI50 (NCI-H460 lung) 3.53 µM | GI50 (NCI-H522 lung) 8.3 µM | GI50 (NCI/ADR-RES ovarian) 2.82 µM | GI50 (OVCAR-3 ovarian) 40 µM | GI50 (OVCAR-4 ovarian) 5.07 µM | GI50 (OVCAR-5 ovarian) 21.2 µM | GI50 (OVCAR-8 ovarian) 3.29 µM | GI50 (PC-3 prostate) 8.98 µM | GI50 (RPMI-8226 leukemia) > 100 µM | GI50 (RXF 393 renal) 2.08 µM | GI50 (SF-268 CNS) 5.35 µM | GI50 (SF-295 CNS) 1.4 µM | GI50 (SF-539 CNS) 2.17 µM | GI50 (SK-MEL-2 melanoma) > 100 µM | GI50 (SK-MEL-28 melanoma) 16.9 µM | GI50 (SK-MEL-5 melanoma) 5.03 µM | GI50 (SK-OV-3 ovarian) 5.02 µM | GI50 (SN12C renal) 11.4 µM | GI50 (SNB-19 CNS) 2.05 µM | GI50 (SR leukemia) > 100 µM | GI50 (SW-620 colon) 3.77 µM | GI50 (T-47D breast) 81.6 µM | GI50 (TK-10 renal) 2.54 µM | GI50 (U251 CNS) 1.32 µM | GI50 (UACC-257 melanoma) > 100 µM | GI50 (UACC-62 melanoma) 43.8 µM | GI50 (UO-31 renal) 2.03 µM
10.6 µM: TGI (NCI/ADR-RES ovarian)
8.23 µM: TGI (MDA-MB-231 breast)
4.63 µM: TGI (SNB-19 CNS)
